Reference: patent US5438060A, “Method of reducing elevated intraocular pressure” (priority 1994, dated 1995)
Counter-ions that a name gives are not always drawn. Like-named read-outs stand apart in the source and are kept apart here.

Assays:
intraocular pressure = assay: Experiment 1: ocular hypotensive effect of eye drops in rabbits (applanation pneumatonograph); type: in vivo, Male Japanese White rabbits; details: for Difference in IOP between the control and test eyes: 50 μl
Method: The ocular hypotensive effect of the eye drops of this invention was investigated in rabbits. The same experiment was also conducted using a representative β-adrenergic blocking agent, and its ocular hypotensive effect was compared with that of eye drops of this invention. Methods: […] […] Male Japanese White rabbits (body weight: ca. 2 kg) with normal intraocular pressure were used in the experiment. […] For each solution, five rabbits were used. After anesthesia of the corneal surface by instillating 5 μl of 0.4%. oxybuprocaine hydrochloride, the intraocular pressure was measured using an applanation pneumatonograph (Alcon) before and after the instillation of the test solution and control solution. Measurement of intraocular pressure after the instillation was conducted with one-hour intervals until six hours post-instillation.

rabbit eyes = assay: Experiment 2: eye irritation test (modified Draize test); type: in vivo, Male Japanese White rabbits
[1] = mice, cited from earlier work
[2] = 0.5% eye drops, before instillation

Q: With `CC(C)(C)NC[C@H](O)COc1nsnc1N1CCOCC1` [Timolol maleate, timolol maleate] as the compound, how does the “Difference in IOP between the control and test eyes” value (intraocular pressure; 0.5% (free base), 1 hr) read?
A: -0.80 mmHg

Q: And the “Difference in IOP between the control and test eyes” value (intraocular pressure; 0.5% (free base), 2 hr)?
A: -0.80 mmHg

Q: What about the “Difference in IOP between the control and test eyes” value (intraocular pressure; 0.5% (free base), 4 hr) of the same compound?
A: -0.25 mmHg

Q: What about the “Difference in IOP between the control and test eyes” value (intraocular pressure; 0.5% (free base), 6 hr) of the same compound?
A: -0.10 mmHg

Q: What about the IOP reduction (intraocular pressure; 0.5% eye drops, one hour after instillation) of the same compound?
A: 0.8 mmHg

Q: And the IOP reduction (intraocular pressure; 0.5% eye drops, two hours after instillation)?
A: 0.8 mmHg

Q: And the “degree of the IOP reduction compared with the 0.0001% eye drops of the invention” value (intraocular pressure; 0.5% timolol eye drops)?
A: significantly less

Q: Which “Difference in IOP between the control and test eyes” value (intraocular pressure; 0.00005% (free base), 1 hr) does the source give for `OCCN(CCO)c1nc(N2CCCCC2)c2nc(N(CCO)CCO)nc(N3CCCCC3)c2n1` [Compound (1), dipyridamole] here?
A: -0.60 mmHg

Q: What about the “Difference in IOP between the control and test eyes” value (intraocular pressure; 0.00005% (free base), 2 hr) of the same compound?
A: -0.50 mmHg

Q: And the “Difference in IOP between the control and test eyes” value (intraocular pressure; 0.00005% (free base), 4 hr)?
A: -0.20 mmHg

Q: And the “Difference in IOP between the control and test eyes” value (intraocular pressure; 0.00005% (free base), 6 hr)?
A: -0.10 mmHg

Q: What about the “time of maximal IOP reduction after instillation” value (“time of maximal IOP reduction” for short) (intraocular pressure; 0.00005% eye drops) of the same compound?
A: one

Q: What about the “Difference in IOP between the control and test eyes” value (intraocular pressure; 0.0001% (free base), 1 hr) of the same compound?
A: -1.30 mmHg

Q: And the “Difference in IOP between the control and test eyes” value (intraocular pressure; 0.0001% (free base), 2 hr)?
A: -0.95 mmHg

Q: What about the “Difference in IOP between the control and test eyes” value (intraocular pressure; 0.0001% (free base), 4 hr) of the same compound?
A: -0.30 mmHg

Q: And the “Difference in IOP between the control and test eyes” value (intraocular pressure; 0.0001% (free base), 6 hr)?
A: -0.20 mmHg

Q: What about the “time of maximal IOP reduction” value (intraocular pressure; 0.0001% eye drops) of the same compound?
A: one

Q: What about the “ocular hypotensive effect remained unchanged after instillation” value (intraocular pressure; 0.0005% eye drops) of the same compound?
A: 2.0 h

Q: What about the “Difference in IOP between the control and test eyes” value (intraocular pressure; 0.001% (free base), 1 hr) of the same compound?
A: -2.00 mmHg

Q: What about the “Difference in IOP between the control and test eyes” value (intraocular pressure; 0.001% (free base), 2 hr) of the same compound?
A: -1.56 mmHg

Q: And the “Difference in IOP between the control and test eyes” value (intraocular pressure; 0.001% (free base), 4 hr)?
A: -1.00 mmHg

Q: What about the “Difference in IOP between the control and test eyes” value (intraocular pressure; 0.001% (free base), 6 hr) of the same compound?
A: -0.75 mmHg

Q: And the “time of maximal IOP reduction” value (intraocular pressure; 0.001% eye drops)?
A: one

Q: What about the “Difference in IOP between the control and test eyes” value (intraocular pressure; 0.01% (free base), 1 hr) of the same compound?
A: -3.44 mmHg

Q: What about the “Difference in IOP between the control and test eyes” value (intraocular pressure; 0.01% (free base), 2 hr) of the same compound?
A: -2.25 mmHg

Q: What about the “Difference in IOP between the control and test eyes” value (intraocular pressure; 0.01% (free base), 4 hr) of the same compound?
A: -1.31 mmHg

Q: What about the “Difference in IOP between the control and test eyes” value (intraocular pressure; 0.01% (free base), 6 hr) of the same compound?
A: -1.00 mmHg

Q: And the “ocular hypotensive effect remained unchanged after instillation” value (intraocular pressure; 0.01% eye drops)?
A: six

Q: What about the “time of maximal IOP reduction” value (intraocular pressure; 0.01% eye drops) of the same compound?
A: one

Q: And the “Difference in IOP between the control and test eyes” value (intraocular pressure; 0.1% (free base), 1 hr)?
A: -4.50 mmHg

Q: And the “Difference in IOP between the control and test eyes” value (intraocular pressure; 0.1% (free base), 2 hr)?
A: -3.05 mmHg

Q: What about the “Difference in IOP between the control and test eyes” value (intraocular pressure; 0.1% (free base), 4 hr) of the same compound?
A: -2.40 mmHg

Q: And the “Difference in IOP between the control and test eyes” value (intraocular pressure; 0.1% (free base), 6 hr)?
A: -1.00 mmHg

Q: And the “average difference of the IOP from the control eye drops” value (intraocular pressure; 0.1% eye drops)?
A: 4.5 mmHg

Q: And the “ocular hypotensive effect retained after instillation” value (intraocular pressure; 0.1% eye drops)?
A: six

Q: What about the “time of maximal IOP reduction” value (intraocular pressure; 0.1% eye drops) of the same compound?
A: one

Q: What about the “Difference in IOP between the control and test eyes” value (intraocular pressure; 0.5% (free base), 1 hr) of the same compound?
A: -3.94 mmHg

Q: And the “Difference in IOP between the control and test eyes” value (intraocular pressure; 0.5% (free base), 2 hr)?
A: -4.40 mmHg

Q: What about the “Difference in IOP between the control and test eyes” value (intraocular pressure; 0.5% (free base), 4 hr) of the same compound?
A: -3.10 mmHg

Q: What about the “Difference in IOP between the control and test eyes” value (intraocular pressure; 0.5% (free base), 6 hr) of the same compound?
A: -1.60 mmHg

Q: And the “ocular hypotensive effect remained unchanged after instillation” value (intraocular pressure; 0.5% eye drops)?
A: six

Q: What about the “time of maximal IOP reduction” value (intraocular pressure; 0.5% eye drops) of the same compound?
A: two

Q: And the “score for the tunica conjunctiva bulbi versus control solution” value (rabbit eyes; 0.5% eye drops)?
A: slightly higher than that for the control solution

Q: And the “Conjunctivae: Chemosis (average score)” value (rabbit eyes; 0.5% eye drops, 0.5 hours)?
A: 0

Q: What about the “Conjunctivae: Condition of haw (average score)” value (“Conjunctivae: Condition of haw” below) (rabbit eyes; 0.5% eye drops, 0.5 hours) of the same compound?
A: 0.6

Q: What about the “Conjunctivae: Discharge (average score)” value (rabbit eyes; 0.5% eye drops, 0.5 hours) of the same compound?
A: 0

Q: And the “Conjunctivae: Redness of tunica conjunctivae bulbi (average score)” value (rabbit eyes; 0.5% eye drops, 0.5 hours)?
A: 0.9

Q: And the “Conjunctivae: Redness of tunica conjunctivae palpebrarum (average score)” value (rabbit eyes; 0.5% eye drops, 0.5 hours)?
A: 1.5

Q: What about the “Cornea: Area of cornea involved (average score)” value (shortened to “Cornea: Area of cornea involved”) (rabbit eyes; 0.5% eye drops, 0.5 hours) of the same compound?
A: 0

Q: What about the “Cornea: Opacity degree of density (average score)” value (from here on “Cornea: Opacity degree of density”) (rabbit eyes; 0.5% eye drops, 0.5 hours) of the same compound?
A: 0

Q: And the “Iris: values (average score)” value (rabbit eyes; 0.5% eye drops, 0.5 hours)?
A: 0.5

Q: What about the “congestion in the iris” value (rabbit eyes; 0.5% eye drops, 0.5 hours after instillation) of the same compound?
A: slight congestion

Q: And the “Conjunctivae: Chemosis (average score)” value (rabbit eyes; 0.5% eye drops, 1 hour)?
A: 0

Q: And the “Conjunctivae: Condition of haw” value (rabbit eyes; 0.5% eye drops, 1 hour)?
A: 0.5

Q: What about the “Conjunctivae: Discharge (average score)” value (rabbit eyes; 0.5% eye drops, 1 hour) of the same compound?
A: 0

Q: What about the “Conjunctivae: Redness of tunica conjunctivae bulbi (average score)” value (rabbit eyes; 0.5% eye drops, 1 hour) of the same compound?
A: 1.1

Q: And the “Conjunctivae: Redness of tunica conjunctivae palpebrarum (average score)” value (rabbit eyes; 0.5% eye drops, 1 hour)?
A: 1.8

Q: What about the “Cornea: Area of cornea involved” value (rabbit eyes; 0.5% eye drops, 1 hour) of the same compound?
A: 0

Q: And the “Cornea: Opacity degree of density” value (rabbit eyes; 0.5% eye drops, 1 hour)?
A: 0

Q: What about the “Iris: values (average score)” value (rabbit eyes; 0.5% eye drops, 1 hour) of the same compound?
A: 1.0

Q: And the “Conjunctivae: Chemosis (average score)” value (rabbit eyes; 0.5% eye drops, 2 hours)?
A: 0

Q: And the “Conjunctivae: Condition of haw” value (rabbit eyes; 0.5% eye drops, 2 hours)?
A: 0.5

Q: What about the “Conjunctivae: Discharge (average score)” value (rabbit eyes; 0.5% eye drops, 2 hours) of the same compound?
A: 0

Q: What about the “Conjunctivae: Redness of tunica conjunctivae bulbi (average score)” value (rabbit eyes; 0.5% eye drops, 2 hours) of the same compound?
A: 0.9

Q: And the “Conjunctivae: Redness of tunica conjunctivae palpebrarum (average score)” value (rabbit eyes; 0.5% eye drops, 2 hours)?
A: 1.8

Q: What about the “Cornea: Area of cornea involved” value (rabbit eyes; 0.5% eye drops, 2 hours) of the same compound?
A: 0

Q: And the “Cornea: Opacity degree of density” value (rabbit eyes; 0.5% eye drops, 2 hours)?
A: 0

Q: What about the “Iris: values (average score)” value (rabbit eyes; 0.5% eye drops, 2 hours) of the same compound?
A: 0.8

Q: And the “Conjunctivae: Chemosis (average score)” value (rabbit eyes; 0.5% eye drops, 3 hours)?
A: 0

Q: And the “Conjunctivae: Condition of haw” value (rabbit eyes; 0.5% eye drops, 3 hours)?
A: 0.5

Q: What about the “Conjunctivae: Discharge (average score)” value (rabbit eyes; 0.5% eye drops, 3 hours) of the same compound?
A: 0

Q: And the “Conjunctivae: Redness of tunica conjunctivae bulbi (average score)” value (rabbit eyes; 0.5% eye drops, 3 hours)?
A: 0.5

Q: What about the “Conjunctivae: Redness of tunica conjunctivae palpebrarum (average score)” value (rabbit eyes; 0.5% eye drops, 3 hours) of the same compound?
A: 1.3

Q: And the “Cornea: Area of cornea involved” value (rabbit eyes; 0.5% eye drops, 3 hours)?
A: 0

Q: What about the “Cornea: Opacity degree of density” value (rabbit eyes; 0.5% eye drops, 3 hours) of the same compound?
A: 0

Q: And the “Iris: values (average score)” value (rabbit eyes; 0.5% eye drops, 3 hours)?
A: 0.5

Q: And the “Conjunctivae: Chemosis (average score)” value (rabbit eyes; 0.5% eye drops, 6 hours)?
A: 0

Q: What about the “Conjunctivae: Condition of haw” value (rabbit eyes; 0.5% eye drops, 6 hours) of the same compound?
A: 0.5

Q: What about the “Conjunctivae: Discharge (average score)” value (rabbit eyes; 0.5% eye drops, 6 hours) of the same compound?
A: 0

Q: And the “Conjunctivae: Redness of tunica conjunctivae bulbi (average score)” value (rabbit eyes; 0.5% eye drops, 6 hours)?
A: 0.1

Q: What about the “Conjunctivae: Redness of tunica conjunctivae palpebrarum (average score)” value (rabbit eyes; 0.5% eye drops, 6 hours) of the same compound?
A: 0.8

Q: And the “Cornea: Area of cornea involved” value (rabbit eyes; 0.5% eye drops, 6 hours)?
A: 0

Q: And the “Cornea: Opacity degree of density” value (rabbit eyes; 0.5% eye drops, 6 hours)?
A: 0

Q: What about the “Iris: values (average score)” value (rabbit eyes; 0.5% eye drops, 6 hours) of the same compound?
A: 0

Q: And the “congestion in the iris” value (rabbit eyes; 0.5% eye drops, after 6 hours)?
A: disappeared

Q: What about the “Conjunctivae: Chemosis (average score)” value (rabbit eyes; [2]) of the same compound?
A: 0

Q: What about the “Conjunctivae: Condition of haw” value (rabbit eyes; [2]) of the same compound?
A: 0.4

Q: And the “Conjunctivae: Discharge (average score)” value (rabbit eyes; [2])?
A: 0

Q: And the “Conjunctivae: Redness of tunica conjunctivae bulbi (average score)” value (rabbit eyes; [2])?
A: 0.1

Q: And the “Conjunctivae: Redness of tunica conjunctivae palpebrarum (average score)” value (rabbit eyes; [2])?
A: 0.8

Q: What about the “Cornea: Area of cornea involved” value (rabbit eyes; [2]) of the same compound?
A: 0

Q: What about the “Cornea: Opacity degree of density” value (rabbit eyes; [2]) of the same compound?
A: 0

Q: What about the “Iris: values (average score)” value (rabbit eyes; [2]) of the same compound?
A: 0

Q: And the “other irritation items, test solution versus control solution” value (rabbit eyes; 0.5% eye drops, irrespective of time)?
A: no difference

Q: And the “irritation to rabbit eyes (overall)” value (rabbit eyes; eye drops of the present invention)?
A: negligible irritation

Q: What about the LD50 ([1]; intravenous injection) of the same compound?
A: 150 mg/kg

Q: What about the LD50 ([1]; subcutaneous administration) of the same compound?
A: 2700 mg/kg
